Consider 25 molecules from US10865196B2, “Compounds for treatment of cancer” (University of Tennessee Research Foundation, priority 2008, dated 2020).

As a reminder, the melting point is the temperature, or range, at which the solid turns liquid.

Read-outs that look alike come from different tables or passages of the source.

One series relates to NCI/ADR-RES. Put plainly: SRB antiproliferation assay, P-gp over-expressing NCI/ADR-RES.
Another series deals with OVCAR-8. The experiment in a line: SRB antiproliferation assay, OVCAR-8 ovarian cancer. As to conditions: Homo sapiens, OVCAR-8, read-out: IC50 OVCAR-8. On the technique in general: In SRB staining, fixed cells bind dye roughly in proportion to their protein.
Series [1] has as its system prostate cancer cells (LNCaP, PC-3, DU-145, PPC-1). Put plainly: SRB assay, prostate cancer cells. It counts as cell-based, human.
Another series deals with DU 145. The experiment in a line: SRB antiproliferation assay, DU 145 prostate cancer. As to conditions: read-out: IC50 DU 145, SRB.
Another series deals with PC-3. The experiment in a line: SRB antiproliferation assay, PC-3 prostate cancer. The conditions noted are these: read-out: IC50 PC-3, SRB.
A further series relates to PPC-1. Put plainly: SRB antiproliferation assay, PPC-1 prostate cancer. The conditions noted are these: read-out: IC50 PPC-1, SRB.
Another series has as its system B16-F1. Put plainly: SRB antiproliferation assay, B16-F1 melanoma. The class given is cell-based, mouse. As to conditions: read-out: IC50 B16-F1 (converted). From the text:
(§1) For melanoma assays, one human melanoma cell line (A375) and one mouse melanoma cell line (B16-F1) were used. […] Fibroblast cells were used as a control to determine the selectivity of these compounds against melanoma. Human dermal fibroblast cells were purchased from Cascade Biologics, Inc., Portland, Oreg., USA.

The test system of a further series is LNCaP. The experiment in a line: SRB antiproliferation assay, LNCaP prostate cancer. The conditions noted are these: read-out: IC50 LNCaP, SRB.
The next series deals with A375. Put plainly: SRB antiproliferation assay, A375 melanoma. It counts as cell-based, human. As to conditions: read-out: IC50 A375 (converted).
Text: as §1

For series [2], the system named is melanoma (A375, B16-F1) and prostate cancer cells (DU145, PC-3, LNCaP, PPC-1). Put plainly: SRB assay, range over melanoma and prostate cancer cell lines. The conditions noted are these: for IC50: range over the examined cell lines, read-out: IC50 over melanoma and prostate cancer cell lines. It counts as cell-based. The protocol: (§2) For melanoma assays, one human melanoma cell line (A375) and one mouse melanoma cell line (B16-F1) were used. […] Fibroblast cells were used as a control to determine the selectivity of these compounds against melanoma. Human dermal fibroblast cells were purchased from Cascade Biologics, Inc., Portland, Oreg., USA. […] Cells were exposed to a wide range of concentrations for 48 h in round-bottomed 96-well plates. […] After cells were air-dried overnight and stained with SRB solution, total proteins were measured at 560 nm with a plate reader.

A further series relates to WM164. Put plainly: SRB antiproliferation assay, WM-164 melanoma. It counts as cell-based. The conditions noted are these: Homo sapiens.
Series [3] concerns Human dermal fibroblast cells. The experiment in a line: SRB assay, fibroblast control cells. It counts as cell-based. On the procedure:
as §2

As for `COc1cc(C(=O)c2cccc(-c3ccccc3)n2)cc(OC)c1OC`, the IC50 in the series on NCI/ADR-RES (Homo sapiens, NCI/ADR-RES, read-out: IC50 NCI/ADR-RES) stood at 13 ± 0.8 nM; with OVCAR-8, 33 ± 3 nM.
`COc1cc(C(=NC#N)c2csc(-c3ccccc3)n2)cc(OC)c1OC` displayed a Resistance factor in the series on NCI/ADR-RES (NCI/ADR-RES vs OVCAR-8) of 0.4.
As to `COc1cc(C(=O)c2csc(-c3ccc(CN)cc3)n2)cc(OC)c1OC`, the IC50 in the series with OVCAR-8 was found to be 26 ± 2 nM.
`COc1cc(C(=O)c2csc(Nc3ccccc3)n2)cc(OC)c1OC` [5-a]: in [1], the “activity in prostate cancer cell lines, in words” value is on record as “potent activity”.
`COc1cc(C(=O)c2csc(Nc3ccc(F)cc3)n2)cc(OC)c1OC` [5-c]: in series [1], the “activity in prostate cancer cell lines, in words” value is given as “potent activity”.
Consider `COc1cc(C(=O)c2csc(Nc3ccc(Cl)cc3)n2)cc(OC)c1OC` [5-d], for which, in series [1], the “activity in prostate cancer cell lines, in words” value is “potent activity”.
For `COc1ccc(-c2nc(C(=O)c3cc(OC)c(OC)c(OC)c3)cs2)cc1OC` [8o, [2-(3,4-Dimethoxyphenyl)-thiazol-4-yl]-(3,4,5-trimethoxyphenyl)-methanone], the IC50 in the series on DU 145 was 102 nM; with PC-3, 69 nM; in the series on PPC-1 it was 56 nM; with B16-F1 (Mus musculus, B16-F1, SRB), 161 nM; in the series on LNCaP, 38 nM; in the series with A375 (Homo sapiens, A-375, SRB), 34 nM.
`COc1cc(C(=O)c2csc(-c3ccc([N+](=O)[O-])cc3)n2)cc(OC)c1OC` [8p, [2-(4-Nitrophenyl)-thiazol-4-yl]-(3,4,5-trimethoxyphenyl)-methanone]: the IC50 in the series with DU 145 was 95 nM; in the series with PC-3, 56 nM; in the series with PPC-1, 34 nM; with B16-F1 (Mus musculus, B16-F1, SRB), 56 nM; in the series on LNCaP, 39 nM; with A375 (Homo sapiens, A-375, SRB), 38 nM.
As to `COc1cc(C(=O)c2csc(-c3ccc(C#N)cc3)n2)cc(OC)c1OC` [8q, 4-[4-(3,4,5-Trimethoxybenzoyl)-thiazol-2-yl]-benzonitrile], the IC50 is 52 nM in the series with DU 145; 30 nM in the series with PC-3; 19 nM with PPC-1; 53 nM in the series on B16-F1 (Mus musculus, B16-F1, SRB); 15 nM with LNCaP; 59 nM with A375 (Homo sapiens, A-375, SRB).
In the case of `COc1cc(C(=O)c2csc(-c3ccc(C(F)(F)F)cc3)n2)cc(OC)c1OC` [8t, (2-(4-(Trifluoromethyl)-phenyl)-thiazol-4-yl)(3,4,5-trimethoxyphenyl)-methanone], the IC50 was 50 nM in the series on DU 145; 58 nM in the series with PC-3; 76 nM in the series with PPC-1; 92 nM with B16-F1 (Mus musculus, B16-F1, SRB); 94 nM in the series with LNCaP; 23 nM in the series with A375 (Homo sapiens, A-375, SRB).
As for `COc1cc(C(=O)c2csc(-c3ccc(Br)cc3)n2)cc(OC)c1OC` [8u, [2-(4-Bromophenyl)-thiazol-4-yl]-(3,4,5-trimethoxyphenyl)-methanone], the IC50 with DU 145 is 21 nM; in the series on PC-3, 18 nM; with PPC-1 it was 21 nM; in the series on B16-F1 (Mus musculus, B16-F1, SRB), 32 nM; in the series on LNCaP, 44 nM; in series [1] (Homo sapiens, range over prostate cancer cell lines, read-out: IC50 values against prostate cancer cells), 18 to 44 nM. In addition, the IC50 in the series with A375 (Homo sapiens, A-375, SRB) is 13 nM.
With `CCc1ccc(-c2nc(C(=O)c3cc(OC)c(OC)c(OC)c3)cs2)cc1` [8v, [2-(4-Ethyl-phenyl)-thiazol-4-yl]-(3,4,5-trimethoxy-phenyl)-methanone], the IC50 was 31 nM in the series on DU 145; 27 nM with PC-3; 17 to 70 nM in series [2]; 22 nM in the series with PPC-1; 70 nM in the series with B16-F1 (Mus musculus, B16-F1, SRB); 60 nM in the series on LNCaP.
Molecule `COc1cc(C(=O)c2csc(-c3ccncc3)n2)cc(OC)c1OC` [8x, [2-(Pyridin-4-yl)-thiazol-4-yl]-(3,4,5-trimethoxyphenyl)-methanone] returned a melting point of 178 to 180 °C. Also, the IC50 in the series on DU 145 is above 20000 nM. For the same molecule, the IC50 in the series on PC-3 was above 20000 nM. Further, the IC50 with PPC-1 is above 20000 nM. In the series with B16-F1 (Mus musculus, B16-F1, SRB), the IC50 is above 100000 nM. In the series with LNCaP, the IC50 is above 20000 nM. Also, the IC50 with A375 (Homo sapiens, A-375, SRB) is above 100000 nM.
`COc1cc(C(=O)c2csc(-c3ncccn3)n2)cc(OC)c1OC` [8y, [2-(Pyrimidin-2-yl)-thiazol-4-yl]-(3,4,5-trimethoxyphenyl)-methanone] returned a melting point of 190 to 191 °C. The IC50 in the series with DU 145 was 2810 nM. Moreover, the IC50 in the series on PC-3 was 2660 nM. The IC50 in series [2] was 11800 to 41000 nM. In addition, the IC50 in the series with PPC-1 was 1190 nM. Besides, in the series on B16-F1 (Mus musculus, B16-F1, SRB), the IC50 was 2300 nM. The IC50 with LNCaP is 2370 nM. Also, the IC50 in the series on A375 (Homo sapiens, A-375, SRB) is 4100 nM.
On to `Cc1ccc(-c2nc(C(=O)c3ccc(F)cc3)cs2)cc1` [11-11], for which the IC50 with WM164 is 4700 nM; with B16-F1 (Mus musculus, B16-F1, SRB), 4900 nM; with A375 (Homo sapiens, A-375, SRB), 3470 nM.
Taken in the same sequence, the figures for `O=C(c1ccc(OC(F)(F)F)cc1)c1csc(-c2ccccc2)n1` [13-13] were above 10000 nM, above 10000 nM and above 10000 nM.
Consider `CCc1cc(C(=O)c2csc(-c3ccccc3)n2)cc(OC(F)(F)F)c1OC(=O)CCl` [18-18], for which the IC50 in the series with DU 145, in the series with PC-3, in the series on PPC-1 and in the series on LNCaP was around 10000 nM in each case.
In the case of `COc1ccc(C(=O)n2ccnc2-c2ccc(F)cc2)cc1` [24-24], the IC50 was above 10000 nM in the series on WM164; above 10000 nM in the series with B16-F1 (Mus musculus, B16-F1, SRB); above 10000 nM in the series with A375 (Homo sapiens, A-375, SRB).
For `CCCCCCCCCCCCCCCCNC(=O)[C@@H]1CSC(c2ccc(NC(C)=O)cc2)N1` (stereo partly shown) [ATCAA-1, reference compound], the IC50 in the series on DU 145 (96 h) is 1700 ± 100 nM; in series [2], 400 to 2200 nM; in the series with PPC-1 (96 h) it was 400 ± 100 nM; with B16-F1 (SRB, 48 h) it was 2200 ± 300 nM; with LNCaP (96 h), 1000 ± 100 nM; with A375 (SRB, 48 h) it was 2100 ± 200 nM.
As to `CC(=O)Nc1ccc(C2N[C@H](C(=O)Nc3ccc4c(c3)Cc3ccccc3-4)CS2)cc1` (stereo partly shown) [ATCAA-2, reference compound], the IC50 is 1900 ± 300 nM with DU 145 (96 h); 2100 ± 100 nM in the series with PC-3 (96 h); 1600 to 3900 nM in [2]; 1600 ± 100 nM in the series with PPC-1 (96 h); 3500 ± 700 nM in the series on LNCaP (96 h); 2100 ± 100 nM with A375 (SRB, 48 h).
For the molecule `COc1cc(C(=O)c2cscn2)cc(OC)c1OC` [compound 10, Thiazol-4-yl-(3,4,5-trimethoxy-phenyl)-methanone], the melting point fell in the range of 106 to 108 °C. Further, the IC50 with DU 145 was above 20000 nM. For the same molecule, the IC50 in the series with PC-3 was above 20000 nM. Besides, in series [2] (compared with 8f or parent compounds), the “antiproliferative activity against melanoma and prostate cancer cell lines, in words” value was “total loss of activity”. In the series on PPC-1, the IC50 was above 20000 nM. Further, in the series with B16-F1 (Mus musculus, B16-F1, SRB), the IC50 is above 100000 nM. Moreover, the IC50 in the series with LNCaP is above 20000 nM. For the same molecule, the IC50 with A375 (Homo sapiens, A-375, SRB) was above 100000 nM.
`COc1cc(/C(=N/O)c2csc(-c3ccccc3)n2)cc(OC)c1OC` [compound 33, (Z)-(2-Phenylthiazol-4-yl)(3,4,5-trimethoxyphenyl)methanone oxime] showed a melting point of 150 to 153 °C. This molecule also showed an IC50 in series [3] of 360 nM. In the series with B16-F1 (Mus musculus, B16-F1, 48 h, SRB, 48 h), the IC50 was 320 nM. Further, in the series with A375 (Homo sapiens, A-375, 48 h, SRB, 48 h), the IC50 is 180 nM.
Turning to `COc1cc(/C(=N\O)c2csc(-c3ccccc3)n2)cc(OC)c1OC` [compound 34, (E)-(2-Phenylthiazol-4-yl)(3,4,5-trimethoxyphenyl)methanone oxime], the melting point fell in the range of 176 to 177 °C. In addition, in the series with DU 145 (96 h), the IC50 is above 1000 nM. In addition, the IC50 in the series with PC-3 (96 h) is above 1000 nM. In series [3], this molecule returned an IC50 of 10100 nM. Besides, the IC50 in the series with PPC-1 (96 h) is above 1000 nM. Moreover, the IC50 with LNCaP (96 h) is above 1000 nM.
For the molecule `COc1cc(/C(=N/N)c2csc(-c3ccccc3)n2)cc(OC)c1OC` [compound 35, (Z)-4-(Hydrazono(3,4,5-trimethoxyphenyl)methyl)-2-phenylthiazole], the melting point lay within 117 to 119 °C. In series [3], this molecule displayed an IC50 of 1900 nM.
The molecule `COc1cc(/C(=N\N)c2csc(-c3ccccc3)n2)cc(OC)c1OC` [compound 36, (E)-4-(Hydrazono(3,4,5-trimethoxyphenyl)methyl)-2-phenylthiazole] returned a melting point of 65 to 66 °C. This molecule displayed an IC50 in series [3] of 1000 nM.
